Results published in US9540325B2, “N1-cyclic amine-N5-substituted phenyl biguanide derivatives, methods of preparing the same and pharmaceutical composition comprising the same” (Immunomet Therapeutics, Inc., priority 2011, dated 2017).
Where a name gives a salt, the structure may show the parent alone.

Tests used:
HCT116 cells = assay: Measurement of effect of inhibiting cancer cell proliferation (MTT); type: cell-based, human; details: for inhibition at 100 µM: HCT-116, 100 μM, read-out: Cell Growth Inhibition (%) at 100 μM
Text: HCT116 cells derived from human colorectal cancer (commercially available from the Korean Cell Line Bank) were used, and the effect of inhibiting cancer cell proliferation of the biguanide derivative was confirmed by measuring the concentration value (cell growth inhibition concentration, GIC50) at which cell growth was inhibited by 50% using a 3-(4,5-dimethylthiazol-2-yl)-2,5-diphenyltetrazolium bromide (MTT) reagent.
First, HCT116 cells were put on a 96-well plate and cultured in a DMEM medium containing 10% fetal bovine serum for 16 hours so that the cellcount in each well was approximately 5,000. Subsequently, to obtain the GIC50 value of each compound, culture media were treated with 100 μM, 25 μM, 6.25 μM, 1.56 μM or 0.39 μM of the compound, and then cultured for 48 hours. Metformin hydrochloride was used as the control, and the culture media were treated with 25, 12.5, 2.5, 0.5, 0.1 mM metformin hydrochloride, and then tested in the same manner as described in the derivatives synthesized in the examples. In order to determine whether the cells survived after treatment with the compounds, MTT was added to the culture media which were then cultured for another 3 hours. Formed formazane crystals were dissolved using dimethyl sulfoxide (DMSO), and the absorbance of the resulting solution was measured at 560 nm. After the 48-hour culture, […] was indicated as cell viability (%) according to each treated concentration. A cell viability curve graph was plotted and the concentration (GIC50) value of the compound at which the growth was inhibited by 50% was calculated to confirm the inhibition effect of cancer cell proliferation. Also, the cell growth viability (%) when the concentration of the treated biguanide derivative and the metformin hydrochloride as the control were 100 μM was shown.

AMPKα = assay: Measurement of AMPK activation effect (AMPKα Thr172 phosphorylation immunoassay) in MCF7 cells; type: cell-based, human; details: 24 hours; for AMPK activation effect at 10 μM (%) / AMPK activation effect at 50 μM (%): relative to untreated cells; for AMPK activation effect AC150: concentration at which AMPK activation reached 150%
Method: MCF7 cells derived from human breast cancer cells (commercially available from the Korean Cell Line Bank) were used, and the AMPK activation effect of the biguanide derivative was confirmed using an AMPKα immunoassay kit (Invitrogen, Catalog No. KHO0651).
MCF7 cells were cultured in a DMEM medium supplemented with 10% fetal bovine serum. Thereafter, the cultured MCF7 cells were put into a 6-well plate with approximately 5×10^5 cells per well and cultured in an incubator supplied with 5% CO2. Culture media were treated with the derivatives synthesized in the examples at contents of 5, 10 and 50 μM, and then cultured for 24 hours. Metformin hydrochloride was used as the control, and the culture media were treated with 0.05, 0.5, 1, 2, 5 and 10 mM metformin hydrochloride, and then tested in the same manner as described in the derivatives synthesized in the examples. Subsequently, the cells were lysed according to a method presented in the operation manual of the AMPKα immunoassay kit, and 20 μg of a cell lysate was then yielded through protein assay. Thereafter, the AMPK activation effect was obtained by determining the degree of phosphorylation of 172nd threonine residue (Thr172) of the AMPKα from the cell lysate according to the method presented in the operation manual of the AMPKα immunoassay kit. […] A curve graph showing AMPK activation according to the concentration of the treated compounds was plotted based on the obtained AMPKα activation results, the concentration (activation concentration 150, AC150) value of the compound whose AMPK activation reached 150% was calculated using a GraphPad Prism 5.0 program, and the degrees of AMPK activation were obtained when concentrations of the treated biguanide derivatives were 10 μM and 50 μM and the metformin hydrochloride was 50 μM

Row | GI50 (HCT116 cells; Homo sapiens, HCT-116, 48 h) [µM] | melting point [°C] | Compound | inhibition at 100 µM (HCT116 cells; Homo sapiens, 48 hours) [%] | AMPK activation effect at 10 μM (%) (AMPKα) | AMPK activation effect at 50 μM (%) (AMPKα) | AMPK activation effect AC150 (AMPKα) [µM] | Cell Growth Inhibition (%) at 100 μM (HCT116 cells; 100 μM, 48 hours) [%] | GI50 (HCT116 cells; 48 hours) [µM]
1 | > 100 | 243 to 244 | Cl.N=C(NC(=N)N1CCCCC1)Nc1c(F)cc(F)cc1F [Example 69, N1-piperidine-N5-(2,4,6-trifluoro)phenyl biguanide hydrochloride] | 21.5 | 131 | 156 | 42.0 |  | 
2 |  | 206 to 208 | N=C(NC(=N)N1CCCCC1)Nc1ccc(C(F)(F)F)c(F)c1 (as salt: acetate) [Example 75, N1-piperidine-N5-(3-fluoro-4-trifluoromethyl)phenyl biguanide acetate] |  |  |  |  |  | 
3 | 4.6 |  | Cl.N=C(NC(=N)N1CCCC1)Nc1ccc(OC(F)(F)F)c(Cl)c1 [Example 56, N1-pyrrolidine-N5-(3-chloro-4-trifluoromethoxy)phenyl biguanide hydrochloride] | 101 | 367 |  | 2.0 |  | 
4 |  | 198 to 200 | N=C(NC(=N)N1CCCCC1)Nc1ccc(C(F)(F)F)cc1 (as salt: acetate) [Example 71, N1-piperidine-N5-(4-trifluoromethyl)phenyl biguanide acetate] |  |  |  |  |  | 
5 |  | 202 to 204 | N=C(NC(=N)N1CCCCC1)Nc1ccc(OC(F)(F)F)c(F)c1 (as salt: acetate) [Example 77, N1-piperidine-N5-(3-fluoro-4-trifluoromethoxy)phenyl biguanide acetate] |  |  |  |  |  | 
6 |  | 204 to 205 | N=C(NC(=N)N1CCCC1)Nc1ccc(C(F)(F)F)c(F)c1 (as salt: acetate) [Example 74, N1-pyrrolidine-N5-(3-fluoro-4-trifluoromethyl)phenyl biguanide acetate] |  |  |  |  |  | 
7 |  | 203 to 205 | N=C(NC(=N)N1CCCC1)Nc1ccc(OC(F)(F)F)c(F)c1 (as salt: acetate) [Example 76, N1-pyrrolidine-N5-(3-fluoro-4-trifluoromethoxy)phenyl biguanide acetate] |  |  |  |  |  | 
8 |  | 200 to 202 | N=C(NC(=N)N1CCCCC1)Nc1ccc(OC(F)(F)F)cc1 (as salt: acetate) [Example 73, N1-piperidine-N5-(4-trifluoromethoxy)phenyl biguanide acetate] |  |  |  |  |  | 

More lines, now with the values behind:

Row | Compound | GI50 (HCT116 cells; Homo sapiens, HCT-116, 48 h) [µM] | melting point [°C] | inhibition at 100 µM (HCT116 cells; Homo sapiens, 48 hours) [%] | AMPK activation effect at 10 μM (%) (AMPKα) | AMPK activation effect at 50 μM (%) (AMPKα) | AMPK activation effect AC150 (AMPKα) [µM] | Cell Growth Inhibition (%) at 100 μM (HCT116 cells; 100 μM, 48 hours) [%] | GI50 (HCT116 cells; 48 hours) [µM]
9 | Cl.N=C(NC(=N)N1CCCCC1)Nc1ccccc1 [Example 8, N1-piperidine-N5-phenyl biguanide hydrochloride] | 56.8 | 204 to 206 | 77.6 |  | 347 | 10.1 |  | 
10 | CC(=O)Nc1ccc(NC(=N)NC(=N)N2CCCCC2)cc1.Cl [Example 38, N1-piperidine-N5-(4-acetamide)phenyl biguanide hydrochloride] | > 100 | 258 to 260 | 0 | 94 | 144 | >50 |  | 
11 | Cl.N=C(NC(=N)N1CCCCC1)Nc1ccc(S(=O)(=O)O)cc1 [Example 42, N1-piperidine-N5-(4-sulfonic acid)phenyl biguanide hydrochloride] | > 100 |  | 23.2 | 68 | 97 | >50 |  | 
12 | Cl.N=C(NC(=N)N1CCCCC1)Nc1ccc(S(N)(=O)=O)cc1 [Example 44, N1-piperidine-N5-(4-sulfamoyl)phenyl biguanide hydrochloride] | > 100 |  | 32.6 | 119 | 114 | >50 |  | 
13 | Cl.N=C(NC(=N)N1CCCCC1)Nc1cccc(OC(F)F)c1 [Example 30, N1-piperidine-N5-(3-difluoromethoxy)phenyl biguanide hydrochloride] |  |  |  | 187 | 636 | 6.4 | 97.9 | 33.7
